Measured values published in patent US20230313313A1, “BIOMARKERS FOR CANCER THERAPY USING MDM2 ANTAGONISTS” (OTSUKA PHARMACEUTICAL CO., LTD., priority 2020, published 2023).
Entries after “also recorded” stand apart in the source; their conditions may differ.

Columns and labels:
MV4-11 cells = assay: Alamar Blue proliferation assay, MV4-11 overexpressing SKP2 vs control; format: cell-based, human; conditions: MV4-11 SKP2 OE compared to control
Experimental: Precision LentiORF Transduction:
Precision LentiORF Lentiviral Transduction Particles (Cat. OHS5900-224629438, Dharmacon, UK) were used to overexpress SKP2 in the MV4-11 AML cell line. Stable gene overexpression was established by cellular resistance to blasticidin (5 μg/ml) and was confirmed at the protein level by western blot. The Precision LentiORF control empty vector (Dharmacon, UK) served as a negative control.
The number of viable cells was determined by Alamar Blue assay (Bio-Rad, Irvine, CA, USA). All cell lines were grown and assayed in RPMI-1640+10% FBS medium.
Compounds were diluted first in DMSO and then into serum-free medium, before addition to triplicate wells of the cultured cells to give a 0.1% DMSO final concentration. […] Twenty μl of Alamar Blue™ (AbD Serotec/Bio-Rad) was added to each well and plates were then incubated for 4-6 h at 37° C. in an atmosphere of 5% CO2 and air. Plates were then read at 535 nm (excitation) and 590 nm (emission) on a SpectraMax Gemini reader (Molecular Devices, San Jose, CA, USA).

OCI-AML3 cells = assay: Induction of apoptosis by cleaved caspase-3 cytometry, combination with IAP antagonist; format: cell-based, human; conditions: 0.1 μM Compound 1 with 1 μM ASTX660 and 1 ng/ml TNF-alpha, 72 h
Experimental: Cleaved caspase-3 staining was recorded in the FL1 (green) channel, with unstained and DMSO control wells being used to set the gated stained and unstained cell populations—allowing the percentage of cells that are apoptotic to be calculated.

SN40R2 = assay: Protocol A: SN40R2 growth inhibition, sulphorhodamine B (SRB) method; conditions: 72 h, read-out: SN40R2 IC50 (Protocol A)
Experimental: Following incubation with the SRB dye at room temperature for 30 min, the plates were washed with 1% acetic acid and left to dry. […] The GI50 was calculated by non-linear regression analysis of the data using Prism v4.0 statistical software.

[1] = test system: multiple myeloma (MM) cells; conditions: in vitro and ex vivo; cited from earlier work
human leukaemia models = conditions: by inducing MDM2 degradation; cited from earlier work
cancer cell lines = conditions: cited from earlier work
tumour growth = conditions: inducing mitochondrial effects of p53; cited from earlier work

For `CC1(C)CCC(CN2CCN(c3ccc(C(=O)NS(=O)(=O)c4ccc(NCC5CCOCC5)c([N+](=O)[O-])c4)c(Oc4cnc5[nH]ccc5c4)c3)CC2)=C(c2ccc(Cl)cc2)C1` [ABT-199, reference compound], the “effect of SKP2 overexpression on cytotoxicity / sensitivity” value (MV4-11 cells) was “does not modulate sensitivity; also recorded: no difference”.

In the case of `C[C@@H]1CN(CC(=O)N2CC(C)(C)c3nc(CO)c(Cc4ccc(F)cc4)cc32)[C@@H](CN2CCOC[C@H]2C)CN1` [ASTX660, 1-{6-[(4-fluorophenyl)methyl]-5-(hydroxymethyl)-3,3-dimethyl-1H,2H,3H-pyrrolo[3,2-b]pyridin-1-yl}-2-[(2R,5R)-5-methyl-2-{[(3R)-3-methylmorpholin-4-yl]methyl}piperazin-1-yl]ethan-1-one, reference compound], the “level of apoptosis (cleaved caspase-3), combination” value (OCI-AML3 cells) is reported as “sensitises”.

With `CC(C)(O)c1ccc2c(c1)C(=O)N(Cc1ccc(Cl)cc1)[C@@]2(OCC1(CO)CC1)c1ccc(Cl)cc1` [Example 1, (3R)-3-(4-chlorophenyl)-2-[(4-chlorophenyl)methyl]-3-{[1-(hydroxymethyl)cyclopropyl]methoxy}-6-(2-hydroxypropan-2-yl)-2,3-dihydro-1H-isoindol-1-one] the IC50 (SN40R2) was 7.5 µM.

With `CC(C)(O)c1cc(F)c2c(c1)C(=O)N(Cc1ccc(Cl)cc1)[C@@]2(OCC1(CO)CC1)c1ccc(Cl)cc1` [Example 2, (3R)-3-(4-chlorophenyl)-2-[(4-chlorophenyl)methyl]-4-fluoro-3-{[1-(hydroxymethyl)cyclopropyl]methoxy}-6-(2-hydroxypropan-2-yl)-2,3-dihydro-1H-isoindol-1-one] the IC50 (SN40R2) was 17 µM.

`CC(O)(CN1CCNCC1)c1cc(F)c2c(c1)C(=O)N(Cc1ccc(Cl)cc1S(C)(=O)=O)[C@@]2(OCC1(CO)CC1)c1ccc(Cl)cc1` (stereo partly drawn) [Example 43, (3R)-2-[(4-chloro-2-methanesulfonylphenyl)methyl]-3-(4-chlorophenyl)-4-fluoro-6-[2-hydroxy-1-(piperazin-1-yl)propan-2-yl]-3-{[1-(hydroxymethyl)cyclopropyl]methoxy}-2,3-dihydro-1H-isoindol-1-one] gave an IC50 (SN40R2) of 2 µM.

For `c1ccc2c(CCNc3ccc(Nc4ccncc4)cc3)c[nH]c2c1` [JNJ 26854165], the “activity against multiple myeloma (MM) cells” value [1] is listed as “potent activity”.

For `O=C(O)C(F)(F)F.O=C1CCC(N2Cc3c(C#CCCCNC(=O)c4ccc(NC(=O)[C@@H]5NC6(CCCCC6)[C@@]6(C(=O)Nc7cc(Cl)ccc76)[C@H]5c5ccnc(Cl)c5F)cc4)cccc3C2=O)C(=O)N1` (stereo partly drawn) [LE-004], the “growth of human leukaemia models in mice” value (human leukaemia models) is given as “efficiently inhibited growth”.

In the case of `CC(C)(C)C[C@@H]1N[C@@H](C(=O)N[C@H]2CC[C@H](O)CC2)[C@H](c2cccc(Cl)c2F)[C@]12C(=O)Nc1cc(Cl)ccc12` [MI-773], the “cell growth in cancer cell lines” value (cancer cell lines) is given as “potently inhibits cell growth”.

For `COC1CC(C(N)=O)CCC1NC(=O)[C@@H]1N[C@@H](CC(C)(C)C)[C@@]2(C(=O)Nc3cc(Cl)ccc32)[C@H]1c1cccc(Cl)c1F` (stereo partly drawn) [RO-8994], the tumour growth (tumour growth) is given as “inhibit tumour growth”.
